The subject of the experiment is L1210 leukemia ip in BDF1 mice, survival T/C. Put plainly: NCI In Vivo Anticancer Drug Screen. Data for tumor model L1210 Leukemia (intraperitoneal) in B6D2F1 (BDF1) mice. To be noted: endpoint: mean survival time, higher = longer survival. In a few lines: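 Survival endpoint. Drug-treated group vs vehicle group, expressed as T divided by C. Tumor passaged by transplantation.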

[1] abbreviates: dose: 100.0 mg/kg/injection, schedule: Q04DX003 (ip), vehicle: saline with Tween-80.
Setting [2] is: dose: 200.0 mg/kg/injection, schedule: Q04DX003 (ip), vehicle: saline with Tween-80.
Setting [3] is: dose: 400.0 mg/kg/injection, schedule: Q04DX003 (ip), vehicle: saline with Tween-80.
[4] abbreviates: dose: 100.0 mg/kg/injection, schedule: Q01DX009 (ip), vehicle: saline with Tween-80.
[5] abbreviates: dose: 200.0 mg/kg/injection, schedule: Q01DX009 (ip), vehicle: saline with Tween-80.
[6] abbreviates: dose: 100.0 mg/kg/injection, schedule: Q01DX001 (ip), vehicle: saline.
Setting [7] is: dose: 100.0 mg/kg/injection, schedule: Q04DX003 (ip), vehicle: Klucel (hydroxypropylcellulose) (HPC).
Where [8] appears, read: dose: 25.0 mg/kg/injection, schedule: Q01DX009 (ip), vehicle: saline.
[9] abbreviates: dose: 50.0 mg/kg/injection, schedule: Q01DX009 (ip), vehicle: saline.
The mark [10] stands for this setting: dose: 200.0 mg/kg/injection, schedule: Q01DX009 (ip), vehicle: saline.
[11] abbreviates: dose: 400.0 mg/kg/injection, schedule: Q01DX009 (ip), vehicle: saline.
[12] abbreviates: dose: 100.0 mg/kg/injection, schedule: Q01DX009 (ip), vehicle: saline.
The mark [13] stands for this setting: dose: 100.0 mg/kg/injection, schedule: Q04DX002 (ip), vehicle: saline with Tween-80.
Where [14] appears, read: dose: 100.0 mg/kg/injection, schedule: Q01DX009 (ip), vehicle: gum acacia.
Setting [15] is: dose: 200.0 mg/kg/injection, schedule: Q01DX009 (ip), vehicle: gum acacia.
Where [16] appears, read: dose: 400.0 mg/kg/injection, schedule: Q01DX009 (ip), vehicle: gum acacia.

Values joined by “and” are separate entries in the source; they are usually repeats but may differ in a detail not shown here. Identical values can stand only once. Inconclusive results and toxic doses are left out.

The results in this text go back to PubChem BioAssay AID248 (DTP/NCI, 2004).

Consider `Clc1ccc(Sc2ncnc3nc[nH]c23)cc1`, for which the T/C was 102 % of control under setting [1], 100 % of control under setting [2] and 105 % of control under setting [3].

In the case of `COC1CC(N=[N+]=[N-])C(O)C(C)O1` (stereo not drawn), the T/C by setting is: under setting [4], 109 % of control and 105 % of control; under setting [1], 97 % of control and 96 % of control; under setting [5], 107 % of control and 89 % of control; under setting [2], 103 % of control and 97 % of control; (dose: 400.0 mg/kg/injection, schedule: Q01DX009 (ip), vehicle: saline with Tween-80) 104 % of control and 100 % of control; under setting [3], 108 % of control and 103 % of control.

As for `CC(C)CCNc1ncnc2[nH]ncc12`, the T/C is 117 % of control (dose: 12.5 mg/kg/injection, schedule: Q01DX009 (ip), vehicle: Klucel (hydroxypropylcellulose) (HPC)); 104 % of control (dose: 25.0 mg/kg/injection, schedule: Q01DX009 (ip), vehicle: Klucel (hydroxypropylcellulose) (HPC)); 109 % of control (dose: 50.0 mg/kg/injection, schedule: Q01DX009 (ip), vehicle: Klucel (hydroxypropylcellulose) (HPC)).

Take `C#CCOC(=O)C(Cl)(Cl)Cl`: the T/C is, setting by setting: (dose: 100.0 mg/kg/injection, schedule: Q04DX002 (ip), vehicle: other) 107 % of control; (dose: 200.0 mg/kg/injection, schedule: Q04DX002 (ip), vehicle: other) 96 % of control.

Take `Nc1cccc(OCCOc2cccc([N+](=O)[O-])c2)c1`: the T/C by setting is: under setting [6], 101 % of control; (dose: 200.0 mg/kg/injection, schedule: Q01DX001 (ip), vehicle: saline) 95 % of control; (dose: 400.0 mg/kg/injection, schedule: Q01DX001 (ip), vehicle: saline) 98 % of control.

In the case of `Cc1ccccc1NC(=O)NCC(=O)O`, the T/C is, setting by setting: under setting [7], 104 % of control; (dose: 200.0 mg/kg/injection, schedule: Q04DX003 (ip), vehicle: Klucel (hydroxypropylcellulose) (HPC)) 98 % of control; (dose: 400.0 mg/kg/injection, schedule: Q04DX003 (ip), vehicle: Klucel (hydroxypropylcellulose) (HPC)) 93 % of control.

Consider `CCc1ccc(C(=O)NN)cc1`, for which the T/C is 95 % of control under setting [8]; 105 % of control and 113 % of control under setting [9]; 117 % of control under setting [10]; 123 % of control under setting [11].

For `COc1cc(NC2CCCCC2O)c2nc(-c3ccc(Cl)cc3)ccc2c1` (stereo not drawn), the T/C by setting is: under setting [12], 98 % of control; under setting [10], 90 % of control; under setting [11], 86 % of control.

Consider `CCOC(=O)CNC(=O)CNC(=O)CNC(=O)CCCCSc1ncnc2nc[nH]c12`, for which the T/C was 102 % of control under setting [8]; 106 % of control (dose: 25.0 mg/kg/injection, schedule: Q01DX009 (oral), vehicle: saline); 110 % of control under setting [9]; 90 % of control (dose: 50.0 mg/kg/injection, schedule: Q01DX009 (oral), vehicle: saline); 96 % of control under setting [12]; 98 % of control (dose: 100.0 mg/kg/injection, schedule: Q01DX009 (oral), vehicle: saline). Further, the T/C under setting [10] was 104 % of control; the T/C (dose: 200.0 mg/kg/injection, schedule: Q01DX009 (oral), vehicle: saline) was 95 % of control; the T/C under setting [11] was 98 % of control; the T/C (dose: 400.0 mg/kg/injection, schedule: Q01DX009 (oral), vehicle: saline) was 114 % of control; the T/C (dose: 800.0 mg/kg/injection, schedule: Q01DX009 (ip), vehicle: saline) is 96 % of control; the T/C (dose: 800.0 mg/kg/injection, schedule: Q01DX009 (oral), vehicle: saline) was 101 % of control.

Regarding `O=C1CCc2ccsc21`, the T/C was 97 % of control under setting [13] and 97 % of control (dose: 200.0 mg/kg/injection, schedule: Q04DX002 (ip), vehicle: saline with Tween-80).

As to `O=C(Nc1cccc(F)c1)SCc1ccccc1`, the T/C is 90 % of control under setting [14], 90 % of control under setting [15] and 98 % of control under setting [16].

For the compound `CC(C)(C)C#C/C(=N\Nc1ccc([N+](=O)[O-])cc1[N+](=O)[O-])c1ccccc1`, the T/C by setting is: (dose: 50.0 mg/kg/injection, schedule: Q04DX002 (ip), vehicle: saline with Tween-80) 89 % of control; under setting [13], 96 % of control; (dose: 400.0 mg/kg/injection, schedule: Q04DX002 (ip), vehicle: saline with Tween-80) 86 % of control.

Regarding `[N-]=[N+]=C1N=CN=C1c1ncn[nH]1`, the T/C (dose: 6.0 mg/kg/injection, schedule: Q01DX015 (ip), vehicle: carboxymethylcellulose (CMC)) is 120 % of control; the T/C (dose: 50.0 mg/kg/injection, schedule: Q01DX001 (ip), vehicle: carboxymethylcellulose (CMC)) was 115 % of control; the T/C (dose: 55.0 mg/kg/injection, schedule: Q01DX015 (ip), vehicle: carboxymethylcellulose (CMC)) was 172 % of control.

For `COc1ccc(NCc2cnc3nc(N)nc(N)c3n2)cc1`, the T/C is, setting by setting: (dose: 20.0 mg/kg/injection, schedule: Q01DX009 (ip), vehicle: saline with Tween-80) 110 % of control; (dose: 40.0 mg/kg/injection, schedule: Q01DX009 (ip), vehicle: saline with Tween-80) 108 % of control; (dose: 80.0 mg/kg/injection, schedule: Q01DX009 (ip), vehicle: saline with Tween-80) 106 % of control.

Consider `CNc1c(Cl)cc(/C=C2\C=Cc3ccccc32)cc1Cl`, for which the T/C (dose: 100.0 mg/kg/injection, schedule: Q01DX001 (ip), vehicle: carboxymethylcellulose (CMC)) is 101 % of control; the T/C (dose: 200.0 mg/kg/injection, schedule: Q01DX001 (ip), vehicle: carboxymethylcellulose (CMC)) is 101 % of control; the T/C (dose: 400.0 mg/kg/injection, schedule: Q01DX001 (ip), vehicle: carboxymethylcellulose (CMC)) is 95 % of control.

Regarding `C[N+]1(C)CCOC(O)(c2ccccc2)C1` (stereo not drawn), the T/C is 88 % of control (dose: 25.0 mg/kg/injection, schedule: Q01DX001 (ip), vehicle: saline); 98 % of control (dose: 50.0 mg/kg/injection, schedule: Q01DX001 (ip), vehicle: saline); 95 % of control and 101 % of control under setting [6].

For `CC(C)(C)OC(=O)NC(Cc1ccccc1)C(=O)NN` (stereo not drawn), the T/C was 108 % of control (dose: 100.0 mg/kg/injection, schedule: Q04DX002 (ip), vehicle: Klucel (hydroxypropylcellulose) (HPC)); 97 % of control (dose: 200.0 mg/kg/injection, schedule: Q04DX002 (ip), vehicle: Klucel (hydroxypropylcellulose) (HPC)); 108 % of control (dose: 400.0 mg/kg/injection, schedule: Q04DX002 (ip), vehicle: Klucel (hydroxypropylcellulose) (HPC)).

As for `CCn1c(=S)[nH]c(=O)c2n[nH]nc21`, the T/C runs as follows: under setting [1], 88 % of control; under setting [2], 89 % of control; under setting [3], 93 % of control.

As to `OC12c3ccccc3C1(c1ccccn1)c1ccccc12` (stereo not drawn), the T/C reads like this: under setting [14], 98 % of control; (dose: 100.0 mg/kg/injection, schedule: Q04DX003 (ip), vehicle: gum acacia) 98 % of control; under setting [15], 96 % of control; (dose: 200.0 mg/kg/injection, schedule: Q04DX003 (ip), vehicle: gum acacia) 98 % of control; under setting [16], 100 % of control; (dose: 400.0 mg/kg/injection, schedule: Q04DX003 (ip), vehicle: gum acacia) 103 % of control.

Take `CCCCOC(=O)NCCSC(=O)OCCCC`: the T/C under setting [1] is 101 % of control, the T/C under setting [2] was 93 % of control and the T/C under setting [3] is 95 % of control.

Regarding `Cc1cc[n+](CCCCCCCCCO)cc1`, the T/C under setting [6] is 103 % of control.

`CN(C)CSc1nc2ccccc2s1`: the T/C was 93 % of control (dose: 50.0 mg/kg/injection, schedule: Q01DX009 (ip), vehicle: saline with Tween-80); 89 % of control under setting [4]; 93 % of control under setting [5].

As for `CC(C)(CO)N=Cc1ccccc1O`, the T/C is 96 % of control (dose: 25.0 mg/kg/injection, schedule: Q04DX003 (ip), vehicle: Klucel (hydroxypropylcellulose) (HPC)); 104 % of control (dose: 50.0 mg/kg/injection, schedule: Q04DX003 (ip), vehicle: Klucel (hydroxypropylcellulose) (HPC)); 96 % of control under setting [7].

Take `N/N=C1\CC(=O)NC(=O)N1`: the T/C by setting is: (dose: 75.0 mg/kg/injection, schedule: Q01DX001 (ip), vehicle: saline) 90 % of control; (dose: 150.0 mg/kg/injection, schedule: Q01DX001 (ip), vehicle: saline) 96 % of control.
